Our source for the IC50 values is patent EP4786455A1, “NOVEL PHTHALAZINE DERIVATIVE COMPOUND AS SOS1 INHIBITOR, AND USE THEREOF” (Hanmi Pharmaceutical Co., Ltd., priority 2023, dated 2025).

Some results are limits rather than exact numbers.

The target of this assay is T1, SOS1 (Homo sapiens, UniProt Q07889).
T1 construct: comprising amino acid residues 564-1049 corresponding to the catalytic domain; purchased Reaction Biology Corp. SOS1-Strep #MSC-11-502; GST-KRAS G12C #MSC-11-538
T1 sequence (Q07889 564-1049): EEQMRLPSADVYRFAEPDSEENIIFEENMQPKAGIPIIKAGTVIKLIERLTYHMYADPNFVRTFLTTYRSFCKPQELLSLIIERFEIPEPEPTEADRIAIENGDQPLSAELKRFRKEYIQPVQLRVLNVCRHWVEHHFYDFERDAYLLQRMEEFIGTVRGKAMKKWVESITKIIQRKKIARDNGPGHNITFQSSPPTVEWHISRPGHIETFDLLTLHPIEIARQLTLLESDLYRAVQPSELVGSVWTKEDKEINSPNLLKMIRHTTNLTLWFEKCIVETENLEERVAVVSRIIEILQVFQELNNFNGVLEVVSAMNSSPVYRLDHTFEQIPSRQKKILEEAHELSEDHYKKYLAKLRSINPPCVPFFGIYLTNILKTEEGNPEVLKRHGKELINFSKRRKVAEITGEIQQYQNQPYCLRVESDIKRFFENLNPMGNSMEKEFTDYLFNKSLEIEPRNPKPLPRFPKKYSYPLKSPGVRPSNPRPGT
Put plainly: Inhibitory activity on SOS1-mediated GTP exchange (HTRF / TR-FRET nucleotide exchange assay on KRAS G12C). The class given is biochemical. Conditions: SOS1-mediated GTP exchange on GST-KRAS G12C (residues 2-169); SOS1-Strep catalytic domain (564-1049); GTP-DY-647P1; HTRF signal; 5-point concentration series up to 1,000 nM. How it is done:
To evaluate whether the SOS1-mediated nucleotide exchange activity on KRAS G12C is inhibited by the compounds of the above Examples, a homogeneous time-resolved fluorescence (homogenous time-resolved fluorescence, HTRF) assay was performed using GST-KRAS G12C (#MSC-11-538) and SOS1-Strep (#MSC-11-502) obtained from Reaction Biology Corp. (USA, MA). The activity of SOS1 was determined by measuring the amount of GTP bound to the KRAS G12C protein based on the principle of time-resolved fluorescence resonance energy transfer (time-resolved fluorescence energy transfer, TR-FRET). Terbium (Terbium) conjugated to an anti-GST antibody bound to the GST tag of the GST-KRAS G12C protein served as a FRET donor, and GTP bound to the KRAS G12C protein was labeled with the fluorophore DY-647P1, serving as a FRET acceptor. Based on this principle, a higher HTRF or FRET signal is observed as more GTP is bound to KRAS G12C due to the SOS1-mediated exchange reaction in the assay.
In summary, a GST-labeled KRAS G12C protein (comprising amino acid residues 2-169), a […] SOS1 protein (comprising amino acid residues 564-1049 corresponding to the catalytic domain), an anti-GST antibody, labeled nucleotide GTP-DY-647P1, and the test compound were mixed in a buffer solution containing 20 mM HEPES (pH 7.4), 150 mM NaCl, 5 mM MgCl2, 1 mM dithiothreitol (DTT), 0.05% BSA, and 0.0025% NP40. The mixture was dispensed into a 384-well plate, incubated at room temperature, and the HTRF signal was measured using a PHERAstar microplate reader (BMG Labtech). The excitation wavelength was 337 nm, and emission was measured at 620/665 nm. A background signal value was determined from fluorescence measurements obtained in the absence of SOS1 protein and was subtracted from all measured HTRF values. A control value was determined from fluorescence measurements obtained in the absence of the synthesized compounds and was set as the 100% reference. Fluorescence signals were measured at compound concentrations of 0.1, 1, 10, 100, and 1,000 nM (5 points, 10-fold) or 1.6, 8, 40, 200, and 1,000 nM (5 points, 5-fold). The 50% inhibitory concentration (IC50) values of the compounds were calculated using GraphPad Prism.
IC50 values were denoted as +++ when 50 nM or less, ++ when greater than 50 nM and 100 nM or less, and + when greater than 100 nM.

`CNc1cc2c(N[C@H](C)c3cccc(C#N)c3C)nnc(C)c2cc1C(=O)N1CCSC1` [Example 3, (R)-2-methyl-3-(1-((4-methyl-7-(methylamino)-6-(thiazolidine-3-carbonyl)phthalazin-1-yl)amino)ethyl)benzonitrile] displayed an IC50 not above 50 nM. For `CNc1cc2c(N[C@H](C)c3cccc(C#N)c3C)nnc(C)c2cc1C(=O)N1CCCCC1` [Example 15, (R)-2-methyl-3-(1-((4-methyl-7-(methylamino)-6-(piperidine-1-carbonyl)phthalazin-1-yl)amino)ethyl)benzonitrile] the value was not above 50 nM. The molecule `CNc1cc2c(N[C@H](C)c3cccc(C#N)c3C)nnc(C)c2cc1C(=O)N1CC2(COC2)C1` [Example 11, (R)-2-methyl-3-(1-((4-methyl-7-(methylamino)-6-(2-oxa-6-azaspiro[3.3]heptane-6-carbonyl)phthalazin-1-yl)amino)ethyl)benzonitrile] displayed an IC50 not above 50 nM. Molecule `CNc1cc2c(N[C@H](C)c3cccc(C#N)c3C)nnc(C)c2cc1C(=O)NC1CCOCC1` [Example 5, (R)-1-((1-(3-cyano-2-methylphenyl)ethyl)amino)-4-methyl-7-(methylamino)-N-(tetrahydro-2H-pyran-4-yl)phthalazine-6-carboxamide] displayed an IC50 not above 50 nM. The molecule `CNc1cc2c(N[C@H](C)c3cccc(C#N)c3C)nnc(C)c2cc1C(=O)N1CCCC1` [Example 14, (R)-2-methyl-3-(1-((4-methyl-7-(methylamino)-6-(pyrrolidine-1-carbonyl)phthalazin-1-yl)amino)ethyl)benzonitrile] came in with an IC50 not above 50 nM. For `CNc1cc2c(N[C@H](C)c3cccc(C#N)c3C)nnc(C)c2cc1C(=O)N1CCC2(CC2)C1` [Example 18, (R)-2-methyl-3-(1-((4-methyl-7-(methylamino)-6-(5-azaspiro[2.4]heptane-5-carbonyl)phthalazin-1-yl)amino)ethyl)benzonitrile] the value was not above 50 nM; for `CNc1cc2c(N[C@H](C)c3cccc(C#N)c3C)nnc(C)c2cc1C(=O)N1CCCOCC1` [Example 24, (R)-2-methyl-3-(1-((4-methyl-7-(methylamino)-6-(1,4-oxazepane-4-carbonyl)phthalazin-1-yl)amino)ethyl)benzonitrile], not above 50 nM; for `Cc1c(C#N)cccc1[C@@H](C)Nc1nnc(C)c2cc(CN3CCOCC3)c(NC3CCCC3)cc12` [Example 30, (R)-3-(1-((7-(cyclopentylamino)-4-methyl-6-(morpholinomethyl)phthalazin-1-yl)amino)ethyl)-2-methylbenzonitrile], not above 50 nM. On to `CNc1cc2c(N[C@H](C)c3cc(N)cc(C(F)(F)F)c3)nnc(C)c2cc1C(=O)N1CCOCC1` [Example 25, (R)-(1-((1-(3-amino-5-(trifluoromethyl)phenyl)ethyl)amino)-4-methyl-7-(methylamino)phthalazin-6-yl)(morpholino)methanone], for which the IC50 is not above 50 nM. Molecule `CNc1cc2c(N[C@H](C)c3cccc(C#N)c3C)nnc(C)c2cc1C(=O)N1CC2CC1CO2` (stereo partly drawn) [Example 19, 3-((1R)-1-((6-(2-oxa-5-azabicyclo[2.2.1]heptane-5-carbonyl)-4-methyl-7-(methylamino)phthalazin-1-yl)amino)ethyl)-2-methylbenzonitrile] returned an IC50 not above 50 nM.
